Patent US8592174B2, “Peptidase substrates” (bioMérieux, S.A., priority 2009, dated 2013)

Assays:
[1] = tested on: Candida glabrata NCPF 3 943; assay: Peptidase detection on Columbia medium (Example 2); assay type: cell-based; design: key to Growth: NG: No growth; 0.5: weak growth; 1: moderate growth; 2: good growth; key to Fluo. / Color / Color post-acid.: —: no color; conditions: 40 mg in 400 ml Columbia, 24 h 37° C.
[2] = tested on: Escherichia coli NCTC 10 418; assay: Peptidase detection on Columbia medium (Example 2); assay type: cell-based; design: key to Growth: NG: No growth; 0.5: weak growth; 1: moderate growth; 2: good growth; conditions: 40 mg in 400 ml Columbia, 24 h 37° C.
[3] = tested on: Gram-negative bacteria, Gram-positive bacteria, yeasts; conditions: conclusion of Example 2
Protocol: 40 mg of each of the substrates were dissolved in 4 ml of dimethyl sulfoxide (80 mg for Asn-ASQM^+) and added to 400 ml of previously autoclaved Columbia medium. The 6 media were distributed into Petri dishes 90 mm in diameter, in a proportion of 20 ml per dish.
Seventeen strains of microorganisms stemming from collections and belonging to various species of bacteria and yeasts are inoculated in spots of approximately 10 000 colony-forming units.
The media are incubated for 24 hours at 37° C., and then the colonies formed are examined visually, with or without the addition of acid and under a UV lamp at 365 nm.

[4] = tested on: Serratia marcescens NCTC 10 211; assay: Peptidase detection on Columbia medium (Example 2); assay type: cell-based; design: key to Growth: NG: No growth; 0.5: weak growth; 1: moderate growth; 2: good growth; conditions: 40 mg in 400 ml Columbia, 24 h 37° C.
[5] = tested on: Bacillus subtilis NCTC 9 372; assay: Peptidase detection on Columbia medium (Example 2); assay type: cell-based; design: key to Growth: NG: No growth; 0.5: weak growth; 1: moderate growth; 2: good growth; key to Fluo. / Color / Color post-acid.: —: no color; conditions: 40 mg in 400 ml Columbia, 24 h 37° C.
[6] = tested on: Staphylococcus epidermidis NCTC 11 047; assay: Peptidase detection on Columbia medium (Example 2); assay type: cell-based; design: key to Growth: NG: No growth; 0.5: weak growth; 1: moderate growth; 2: good growth; key to Fluo. / Color / Color post-acid.: —: no color; conditions: 40 mg in 400 ml Columbia, 24 h 37° C.
[7] = tested on: Enterobacter cloacae NCTC 11 936; assay: Peptidase detection on Columbia medium (Example 2); assay type: cell-based; design: key to Growth: NG: No growth; 0.5: weak growth; 1: moderate growth; 2: good growth; conditions: 40 mg in 400 ml Columbia, 24 h 37° C.
[8] = tested on: Yersinia enterocolitica NCTC 11 176; assay: Peptidase detection on Columbia medium (Example 2); assay type: cell-based; design: key to Growth: NG: No growth; 0.5: weak growth; 1: moderate growth; 2: good growth; conditions: 40 mg in 400 ml Columbia, 24 h 37° C.
[9] = tested on: Salmonella typhimurium NCTC 74; assay: Peptidase detection on Columbia medium (Example 2); assay type: cell-based; design: key to Growth: NG: No growth; 0.5: weak growth; 1: moderate growth; 2: good growth; conditions: 40 mg in 400 ml Columbia, 24 h 37° C.
[10] = tested on: Enterococcus faecalis NCTC 775; assay: Peptidase detection on Columbia medium (Example 2); assay type: cell-based; design: key to Growth: NG: No growth; 0.5: weak growth; 1: moderate growth; 2: good growth; key to Fluo. / Color / Color post-acid.: —: no color; conditions: 40 mg in 400 ml Columbia, 24 h 37° C.
[11] = tested on: Streptococcus pyogenes NCTC 8 306; assay: Peptidase detection on Columbia medium (Example 2); assay type: cell-based; design: key to Growth: NG: No growth; 0.5: weak growth; 1: moderate growth; 2: good growth; key to Fluo. / Color / Color post-acid.: —: no color; conditions: 40 mg in 400 ml Columbia, 24 h 37° C.
[12] = tested on: Listeria monocytogenes NCTC 11 994; assay: Peptidase detection on Columbia medium (Example 2); assay type: cell-based; design: key to Growth: NG: No growth; 0.5: weak growth; 1: moderate growth; 2: good growth; key to Fluo. / Color / Color post-acid.: —: no color; conditions: 40 mg in 400 ml Columbia, 24 h 37° C.
[13] = tested on: Staphylococcus aureus NCTC 11 939; assay: Peptidase detection on Columbia medium (Example 2); assay type: cell-based; design: key to Growth: NG: No growth; 0.5: weak growth; 1: moderate growth; 2: good growth; key to Fluo. / Color / Color post-acid.: —: no color; conditions: 40 mg in 400 ml Columbia, 24 h 37° C.
[14] = tested on: Candida albicans ATCC 90 028; assay: Peptidase detection on Columbia medium (Example 2); assay type: cell-based; design: key to Growth: NG: No growth; 0.5: weak growth; 1: moderate growth; 2: good growth; key to Fluo. / Color / Color post-acid.: —: no color; conditions: 40 mg in 400 ml Columbia, 24 h 37° C.
[15] = tested on: Enterococcus faecium NCTC 7 171; assay: Peptidase detection on Columbia medium (Example 2); assay type: cell-based; design: key to Growth: NG: No growth; 0.5: weak growth; 1: moderate growth; 2: good growth; key to Fluo. / Color / Color post-acid.: —: no color; conditions: 40 mg in 400 ml Columbia, 24 h 37° C.
[16] = tested on: Staphylococcus aureus NCTC 6 571; assay: Peptidase detection on Columbia medium (Example 2); assay type: cell-based; design: key to Growth: NG: No growth; 0.5: weak growth; 1: moderate growth; 2: good growth; key to Fluo. / Color / Color post-acid.: —: no color; conditions: 40 mg in 400 ml Columbia, 24 h 37° C.
[17] = tested on: Providencia rettgeri NCTC 7 475; assay: Peptidase detection on Columbia medium (Example 2); assay type: cell-based; design: key to Growth: NG: No growth; 0.5: weak growth; 1: moderate growth; 2: good growth; conditions: 40 mg in 400 ml Columbia, 24 h 37° C.
[18] = tested on: Pseudomonas aeruginosa NCTC 10 662; assay: Peptidase detection on Columbia medium (Example 2); assay type: cell-based; design: key to Growth: NG: No growth; 0.5: weak growth; 1: moderate growth; 2: good growth; conditions: 40 mg in 400 ml Columbia, 24 h 37° C.

Growth [4]: 2
Fluo. ([4]; UV lamp 365 nm): Green
Color post-acid. ([4]; addition of acid): Orange
Color [5]: —
Growth [5]: NG
Fluo. ([5]; UV lamp 365 nm): —
Color post-acid. ([5]; addition of acid): —
Growth [7]: 2
Color post-acid. ([7]; addition of acid): Pale yellow
Growth [9]: 2
Color post-acid. ([9]; addition of acid): Pale yellow
Color [10]: —
Growth [10]: NG
Fluo. ([10]; UV lamp 365 nm): —
Color post-acid. ([10]; addition of acid): —
Color [11]: —
Growth [11]: NG
Fluo. ([11]; UV lamp 365 nm): —
Color post-acid. ([11]; addition of acid): —
Color [12]: —
Growth [12]: NG
Fluo. ([12]; UV lamp 365 nm): —
Color post-acid. ([12]; addition of acid): —
Color [15]: —
Growth [15]: NG
Fluo. ([15]; UV lamp 365 nm): —
Color post-acid. ([15]; addition of acid): —
Growth [18]: 2
Fluo. ([18]; UV lamp 365 nm): Green
Color post-acid. ([18]; addition of acid): Orange
SMILES: NCCC(=O)Nc1ccc(C=Cc2ccc3ccccc3n2)cc1 [β-Ala-ASQ, β-alanyl-2-(4′-amidostyryl)quinoline]
Color [1]: —
Growth [1]: NG
Fluo. ([1]; UV lamp 365 nm): —
Color post-acid. ([1]; addition of acid): —
Growth [2]: 2
Color post-acid. ([2]; addition of acid): Pale yellow
toxicity / growth of microorganisms [3]: toxic with respect to certain groups
Color [6]: —
Growth [6]: NG
Fluo. ([6]; UV lamp 365 nm): —
Color post-acid. ([6]; addition of acid): —
Growth [8]: 2
Color post-acid. ([8]; addition of acid): Pale yellow
Color [13]: —
Growth [13]: NG
Fluo. ([13]; UV lamp 365 nm): —
Color post-acid. ([13]; addition of acid): —
Color [14]: —
Growth [14]: NG
Fluo. ([14]; UV lamp 365 nm): —
Color post-acid. ([14]; addition of acid): —
Color [16]: —
Growth [16]: NG
Fluo. ([16]; UV lamp 365 nm): —
Color post-acid. ([16]; addition of acid): —
Growth [17]: 2
Color post-acid. ([17]; addition of acid): Pale yellow
